In article PMC3505271 (Nature chemical biology, 2012):

Columns and labels:
AnaPS = AnaPS (Aspergillus fischeri, UniProt A1DN09); assay: amino acid-dependent ATP-[…]PPi exchange; type: biochemical; conditions: adenylation domain substrate; ATP co-substrate
TqaA = TqaA (Penicillium aethiopicum, UniProt F1CWE4); assay: amino acid-dependent ATP-[…]PPi exchange; type: biochemical; conditions: adenylation domain substrate; ATP co-substrate

Sequence of AnaPS (A1DN09 whole entry, the tested form may be a part): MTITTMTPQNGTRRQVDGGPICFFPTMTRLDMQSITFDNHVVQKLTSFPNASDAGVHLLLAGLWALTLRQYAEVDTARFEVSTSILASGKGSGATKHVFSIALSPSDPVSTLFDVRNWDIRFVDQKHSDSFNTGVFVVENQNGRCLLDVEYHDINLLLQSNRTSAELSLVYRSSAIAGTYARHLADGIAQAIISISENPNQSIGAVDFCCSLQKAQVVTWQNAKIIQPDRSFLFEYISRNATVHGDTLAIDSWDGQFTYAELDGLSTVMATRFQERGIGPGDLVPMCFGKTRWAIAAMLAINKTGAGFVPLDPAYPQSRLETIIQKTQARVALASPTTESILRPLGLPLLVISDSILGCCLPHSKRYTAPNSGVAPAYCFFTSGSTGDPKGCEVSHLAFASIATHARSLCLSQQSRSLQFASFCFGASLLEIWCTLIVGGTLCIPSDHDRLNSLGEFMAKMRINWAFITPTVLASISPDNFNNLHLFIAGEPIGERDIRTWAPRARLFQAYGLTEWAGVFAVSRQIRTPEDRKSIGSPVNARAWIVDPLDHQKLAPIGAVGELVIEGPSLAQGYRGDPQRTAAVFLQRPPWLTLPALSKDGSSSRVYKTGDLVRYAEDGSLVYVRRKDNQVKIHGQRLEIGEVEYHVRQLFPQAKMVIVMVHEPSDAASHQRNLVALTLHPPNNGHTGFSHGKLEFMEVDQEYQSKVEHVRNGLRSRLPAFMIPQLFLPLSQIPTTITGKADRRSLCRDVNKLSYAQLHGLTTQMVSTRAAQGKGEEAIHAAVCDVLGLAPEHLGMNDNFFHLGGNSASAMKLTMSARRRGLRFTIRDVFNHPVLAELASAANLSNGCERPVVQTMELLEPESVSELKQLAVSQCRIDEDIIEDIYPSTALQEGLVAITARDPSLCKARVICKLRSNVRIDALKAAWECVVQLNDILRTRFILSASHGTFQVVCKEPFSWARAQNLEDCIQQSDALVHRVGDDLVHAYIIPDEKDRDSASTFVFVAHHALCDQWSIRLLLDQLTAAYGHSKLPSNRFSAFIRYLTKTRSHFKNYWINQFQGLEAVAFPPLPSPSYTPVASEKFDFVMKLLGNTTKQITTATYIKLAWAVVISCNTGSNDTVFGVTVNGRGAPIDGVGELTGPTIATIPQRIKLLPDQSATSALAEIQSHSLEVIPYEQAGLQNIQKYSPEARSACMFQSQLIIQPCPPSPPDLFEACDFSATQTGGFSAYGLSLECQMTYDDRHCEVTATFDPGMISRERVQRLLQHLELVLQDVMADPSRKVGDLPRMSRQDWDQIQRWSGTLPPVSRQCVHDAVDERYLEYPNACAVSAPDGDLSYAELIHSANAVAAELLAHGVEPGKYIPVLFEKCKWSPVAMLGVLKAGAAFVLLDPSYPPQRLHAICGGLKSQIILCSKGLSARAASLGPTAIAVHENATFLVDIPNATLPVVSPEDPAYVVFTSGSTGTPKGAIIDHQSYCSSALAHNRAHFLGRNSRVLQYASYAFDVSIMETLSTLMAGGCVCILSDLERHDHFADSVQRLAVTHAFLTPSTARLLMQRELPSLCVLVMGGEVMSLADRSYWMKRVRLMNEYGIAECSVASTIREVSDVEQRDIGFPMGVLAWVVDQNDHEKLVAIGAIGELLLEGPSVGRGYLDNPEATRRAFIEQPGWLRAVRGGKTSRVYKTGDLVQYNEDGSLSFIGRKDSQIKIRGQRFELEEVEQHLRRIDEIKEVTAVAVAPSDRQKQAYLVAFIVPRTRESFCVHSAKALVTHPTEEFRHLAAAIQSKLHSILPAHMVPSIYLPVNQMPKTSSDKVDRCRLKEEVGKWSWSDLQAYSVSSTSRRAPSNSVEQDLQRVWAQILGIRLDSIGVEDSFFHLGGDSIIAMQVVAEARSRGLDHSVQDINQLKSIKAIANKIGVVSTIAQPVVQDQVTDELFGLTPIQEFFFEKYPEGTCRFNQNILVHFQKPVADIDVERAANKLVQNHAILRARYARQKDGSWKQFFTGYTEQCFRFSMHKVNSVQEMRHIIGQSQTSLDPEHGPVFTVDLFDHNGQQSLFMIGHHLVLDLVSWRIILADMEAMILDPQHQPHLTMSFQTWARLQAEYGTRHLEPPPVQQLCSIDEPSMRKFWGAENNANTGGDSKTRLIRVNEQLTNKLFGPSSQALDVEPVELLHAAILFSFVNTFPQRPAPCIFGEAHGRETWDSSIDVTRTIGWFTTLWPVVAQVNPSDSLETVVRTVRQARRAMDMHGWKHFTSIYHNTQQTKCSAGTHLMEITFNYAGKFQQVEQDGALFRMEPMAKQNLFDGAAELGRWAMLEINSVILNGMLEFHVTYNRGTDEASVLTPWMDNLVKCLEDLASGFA

Compound | amino acid-dependent ATP-[32P]PPi exchange (AnaPS) | amino acid-dependent ATP-[32P]PPi exchange (TqaA)
N[C@@H](Cc1c[nH]c2ccccc12)C(=O)O [L-tryptophan] | Similarly, AnaPS A domains activated Ant and L-Trp | –
Nc1ccccc1C(=O)O [anthranilate] | Similarly, AnaPS A domains activated Ant and L-Trp | TqaA specifically activated the three building blocks Ant, L-Trp and L-Ala
